Reference: BindingDB's records for patent US20250313563 (The Broad Institute, 2025)
Where “and” joins values, the source holds several entries; their conditions need not be identical. Equal values may be shown once.

Assays:
[1] = molecular target: Glycogen synthase kinase-3 beta (Homo sapiens, UniProt P49841); experiment: TR-FRET Assay
Outline: (§1)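 Signal is measured as TR-FRET between a terbium anti-phospho-Ser641 antibody and streptavidin-d2, added after an EDTA quench. Compounds are preincubated 30 min in assay buffer.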

[2] = molecular target: Glycogen synthase kinase-3 alpha (Homo sapiens, UniProt P49840); experiment: TR-FRET Assay
Outline: as §1

Chain of Glycogen synthase kinase-3 beta (P49841 whole entry): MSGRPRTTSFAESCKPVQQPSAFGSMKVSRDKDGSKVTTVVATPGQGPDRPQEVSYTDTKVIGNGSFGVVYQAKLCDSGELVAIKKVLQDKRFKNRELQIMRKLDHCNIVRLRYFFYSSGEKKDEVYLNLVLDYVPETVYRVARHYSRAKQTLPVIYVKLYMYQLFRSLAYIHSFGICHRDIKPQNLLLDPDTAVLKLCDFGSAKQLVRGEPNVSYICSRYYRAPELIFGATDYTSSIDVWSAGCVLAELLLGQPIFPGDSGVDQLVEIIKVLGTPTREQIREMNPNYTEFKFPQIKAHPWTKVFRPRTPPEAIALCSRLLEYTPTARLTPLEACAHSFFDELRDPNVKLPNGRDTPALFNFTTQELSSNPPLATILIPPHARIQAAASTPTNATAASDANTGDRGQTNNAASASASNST
Chain of Glycogen synthase kinase-3 alpha (P49840 whole entry): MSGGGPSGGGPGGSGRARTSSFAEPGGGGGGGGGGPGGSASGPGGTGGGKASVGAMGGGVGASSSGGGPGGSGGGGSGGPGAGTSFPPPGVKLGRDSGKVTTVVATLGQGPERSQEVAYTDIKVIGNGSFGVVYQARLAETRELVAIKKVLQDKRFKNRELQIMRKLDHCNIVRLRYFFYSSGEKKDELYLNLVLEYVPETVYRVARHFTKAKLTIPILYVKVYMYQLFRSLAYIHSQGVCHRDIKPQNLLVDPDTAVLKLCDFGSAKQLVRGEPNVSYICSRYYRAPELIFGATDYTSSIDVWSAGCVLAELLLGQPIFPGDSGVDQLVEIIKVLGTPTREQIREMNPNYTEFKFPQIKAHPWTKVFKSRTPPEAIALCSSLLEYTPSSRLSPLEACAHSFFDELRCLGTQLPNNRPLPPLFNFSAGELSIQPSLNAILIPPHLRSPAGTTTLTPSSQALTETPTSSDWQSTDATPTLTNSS

| Structure (SMILES) | IC50 [1] | IC50 [2] |
| --- | --- | --- |
| CC[C@H]1CCN1c1cccc([C@@]2(CC)C3=CN=NC3NC3=C2C(=O)CC(C)(C)C3)c1 (stereo partly drawn) [US20250313563, Compound 911969] | 0.1 to 1 µM | < 0.1 µM |
| CC[C@@H]1CCN1c1cccc([C@@]2(CC)C3=CN=NC3NC3=C2C(=O)CC(C)(C)C3)c1 (stereo partly drawn) [US20250313563, Compound 911970] | 0.1 to 1 µM | < 0.1 µM |
| CC[C@H]1CCN1c1cccc([C@]2(CC)C3=CN=NC3NC3=C2C(=O)CC(C)(C)C3)c1 (stereo partly drawn) [US20250313563, Compound 911972] | > 5 µM | 1 to 5 µM |
| CC1(C)CC(=O)C2=C(C1)NC1=C(CN=N1)C21COC2(CCC2)C1 (stereo not drawn) [US20250313563, Compound 911973] | 0.1 to 1 µM | 0.1 to 1 µM |
| CC[C@]1(c2cccc(N(C)c3cccnn3)c2)C2=CN=NC2NC2=C1C(=O)CC(C)(C)C2 (stereo partly drawn) [US20250313563, Compound 911975] | 1 to 5 µM | 0.1 to 1 µM |
| CC[C@]1(c2cccc(N(C)c3ncccn3)c2)C2=CN=NC2NC2=C1C(=O)CC(C)(C)C2 (stereo partly drawn) [US20250313563, Compound 911980] | < 0.1 µM and 0.1 to 1 µM | < 0.1 µM |
| CC[C@]1(c2cccc(-c3ccnc(OC)c3)c2)C2=CN=NC2NC2=C1C(=O)CC(C)(C)C2 (stereo partly drawn) [US20250313563, Compound 911988] | 0.1 to 1 µM and > 5 µM | < 0.1 µM and 0.1 to 1 µM |
| CC[C@]1(c2cccc(-c3c(C)nn(C)c3C)c2)C2=CN=NC2NC2=C1C(=O)CC(C)(C)C2 (stereo partly drawn) [US20250313563, Compound 911990] | < 0.1 µM and 0.1 to 1 µM | < 0.1 µM |
| CC[C@@]1(c2cccc(-c3ccnn3C)c2)C2=CN=NC2NC2=C1C(=O)CC(C)(C)C2 (stereo partly drawn) [US20250313563, Compound 911993] | 0.1 to 1 µM | < 0.1 µM |
| CC[C@]1(c2cccc(N3CCc4ccncc43)c2)C2=CN=NC2NC2=C1C(=O)CC(C)(C)C2 (stereo partly drawn) [US20250313563, Compound 912003] | 0.1 to 1 µM | < 0.1 µM |
| CC[C@]1(c2cccc(C(F)(F)F)c2)C2=CN=NC2NC2=C1C(=O)N(Cc1ccccc1)CC2 (stereo partly drawn) [US20250313563, Compound 912005] | 1 to 5 µM | 0.1 to 1 µM |
| CC[C@@]1(c2cccc(C(F)(F)F)c2)C2=CN=NC2NC2=C1C(=O)N(Cc1ccccc1)CC2 (stereo partly drawn) [US20250313563, Compound 912006] | > 5 µM | > 5 µM |
| CCC1(c2cccc(N(CCc3ccccc3)C(C)=O)c2)C2=CN=NC2NC2=C1C(=O)CC(C)(C)C2 (stereo not drawn) [US20250313563, Compound 912064] | < 0.1 µM | < 0.1 µM |
| CCC1(c2cccc(N(C)C(=O)C3CCCCC3)c2)C2=CN=NC2NC2=C1C(=O)CC(C)(C)C2 (stereo not drawn) [US20250313563, Compound 912065] | 0.1 to 1 µM | < 0.1 µM |
| CCC1(c2cccc(N(C)C(=O)CCc3ccccc3)c2)C2=CN=NC2NC2=C1C(=O)CC(C)(C)C2 (stereo not drawn) [US20250313563, Compound 912066] | 0.1 to 1 µM | < 0.1 µM |
| CCC1(c2cccc(N(C)C(O)C3CC3)c2)C2=CN=NC2NC2=C1C(=O)CC(C)(C)C2 (stereo not drawn) [US20250313563, Compound 912067] | < 0.1 µM | < 0.1 µM |
| CCC1(c2cccc(N(C)C(=O)c3cnn(C)c3)c2)C2=CN=NC2NC2=C1C(=O)CC(C)(C)C2 (stereo not drawn) [US20250313563, Compound 912068] | 0.1 to 1 µM | < 0.1 µM |
| CCC1(c2cccc(N(C(C)=O)C3CCCC3)c2)C2=CN=NC2NC2=C1C(=O)CC(C)(C)C2 (stereo not drawn) [US20250313563, Compound 912069] | < 0.1 µM | < 0.1 µM |
| CCC1(c2cccc(N(C)C(=O)C3CCOCC3)c2)C2=CN=NC2NC2=C1C(=O)CC(C)(C)C2 (stereo not drawn) [US20250313563, Compound 912070] | 0.1 to 1 µM | < 0.1 µM |
| CCC1(c2cccc(N(C)C(=O)Cc3ccccc3)c2)C2=CN=NC2NC2=C1C(=O)CC(C)(C)C2 (stereo not drawn) [US20250313563, Compound 912071] | < 0.1 µM | < 0.1 µM |
| CC1N=NC2=C1C1(CCOCC1)C1=C(CC(C)(C)C(F)C1=O)N2 (stereo not drawn) [US20250313563, Compound 912072] | 0.1 to 1 µM | 0.1 to 1 µM |
| CC1(C)CC(=O)C2=C(C1)NC1=C(CN=N1)C21CN(CC(F)F)C1 [US20250313563, Compound 912073] | 0.1 to 1 µM | 0.1 to 1 µM |
| CC1(C)CC(=O)C2=C(C1)NC1=C(CN=N1)C21CN(CC(F)(F)F)C1 [US20250313563, Compound 912074] | 0.1 to 1 µM | < 0.1 µM |
| CC1(C)CC(=O)C2=C(C1)NC1=C(CN=N1)C21CNC1 [US20250313563, Compound 912075] | > 5 µM | 1 to 5 µM |
| CC1(C)CC(=O)C2=C(C1)NC1=C(CN=N1)C21CN(C2COC2)C1 [US20250313563, Compound 912076] | 1 to 5 µM | 0.1 to 1 µM |
| CC1(C)CC(=O)C2=C(C1)NC1=C(CN=N1)C21CN(c2ccncc2)C1 [US20250313563, Compound 912077] | > 5 µM | > 5 µM |
| C[C@H]1CC(=O)C2=C(C1)NC1=C(CN=N1)C21CCOCC1 [US20250313563, Compound 912078] | 0.1 to 1 µM | 0.1 to 1 µM |

| Structure (SMILES) | IC50 [1] | IC50 [2] |
| --- | --- | --- |
| C[C@@H]1CC(=O)C2=C(C1)NC1=C(CN=N1)C21CCOCC1 [US20250313563, Compound 912079] | 0.1 to 1 µM | 0.1 to 1 µM |
| O=C1C2=C(NC3N=NC=C3C23CCOCC3)[C@H]2CC[C@@H]1C2 (stereo partly drawn) [US20250313563, Compound 912080] | 0.1 to 1 µM | 0.1 to 1 µM |
| O=C1C2=C(NC3N=NC=C3C23CCOCC3)[C@@H]2CC[C@H]1C2 (stereo partly drawn) [US20250313563, Compound 912081] | 1 to 5 µM | 0.1 to 1 µM |
| CC[C@]1(c2cccc([C@@H]3CCOC(C)(C)C3)c2)C2=CN=NC2NC2=C1C(=O)CC(C)(C)C2 (stereo partly drawn) [US20250313563, Compound 912089] | 0.1 to 1 µM | 0.1 to 1 µM |
| CC[C@@]1(c2cccc([C@@H]3CCOC(C)(C)C3)c2)C2=CN=NC2NC2=C1C(=O)CC(C)(C)C2 (stereo partly drawn) [US20250313563, Compound 912091] | > 5 µM | > 5 µM |
| CC1(C)CC(=O)C2=C(C1)NC1=C(CN=N1)C21CCN(S(C)(=O)=O)C1 (stereo not drawn) [US20250313563, Compound 912092] | < 0.1 µM | < 0.1 µM |
| CC1(C)CC(=O)C2=C(C1)NC1=C(CN=N1)C21COCCOC1 [US20250313563, Compound 912094] | > 5 µM | 1 to 5 µM |
| CC[C@]1(c2cccc(C(F)(F)F)c2)C2=CN=NC2NC2=C1C(=O)N[C@H](C)C2 (stereo partly drawn) [US20250313563, Compound 912096] | 0.1 to 1 µM | < 0.1 µM |
| CC[C@]1(c2cccc(C(F)(F)F)c2)C2=CN=NC2NC2=C1C(=O)N[C@@H](C)C2 (stereo partly drawn) [US20250313563, Compound 912097] | > 5 µM | 0.1 to 1 µM |
| CC[C@@]1(c2cccc(C(F)(F)F)c2)C2=CN=NC2NC2=C1C(=O)N[C@H](C)C2 (stereo partly drawn) [US20250313563, Compound 912098] | 0.1 to 1 µM | < 0.1 µM |
| CC[C@@]1(c2cccc(C(F)(F)F)c2)C2=CN=NC2NC2=C1C(=O)N[C@@H](C)C2 (stereo partly drawn) [US20250313563, Compound 912099] | > 5 µM | > 5 µM |
| CCC1(c2cccc(C(F)(F)F)c2)C2=C(N=NC2)NC2=C1C(=O)NC2(C)C (stereo not drawn) [US20250313563, Compound 912104] | 0.1 to 1 µM | < 0.1 µM |
| CC1(C)CC(=O)C2=C(C1)NC1=C(CN=N1)C21CCCCC1=O (stereo not drawn) [US20250313563, Compound 912105] | > 5 µM | > 5 µM |
| CC1(C)CC(=O)C2=C(C1)NC1=C(CN=N1)[C@]21CCO[C@@H](C(C)(C)C)C1 [US20250313563, Compound 912106] | 1 to 5 µM | 0.1 to 1 µM |
| CC1(C)CC(=O)C2=C(C1)NC1=C(CN=N1)[C@@]21CCO[C@H](C(C)(C)C)C1 [US20250313563, Compound 912107] | > 5 µM | > 5 µM |
| CC1(C)CC(=O)C2=C(C1)NC1=C(CN=N1)[C@]21CCO[C@H](C(C)(C)C)C1 [US20250313563, Compound 912112] | 0.1 to 1 µM | 0.1 to 1 µM |
| CC1(C)CC(=O)C2=C(C1)NC1=C(CN=N1)[C@@]21CCO[C@@H](C(C)(C)C)C1 [US20250313563, Compound 912113] | 1 to 5 µM | 1 to 5 µM |
| CCC1(c2cccc(N(CC3CCCC3)C(C)=O)c2)C2=CN=NC2NC2=C1C(=O)CC(C)(C)C2 (stereo not drawn) [US20250313563, Compound 912166] | < 0.1 µM | < 0.1 µM |
| CCC1(c2cccc(N(C)C(=O)C3CCN(C)CC3)c2)C2=CN=NC2NC2=C1C(=O)CC(C)(C)C2 (stereo not drawn) [US20250313563, Compound 912167] | 1 to 5 µM | 0.1 to 1 µM |
| CC1(C)CC(=O)C2=C(C1)NC1=C(CN=N1)C21CC2(COC2)C1 [US20250313563, Compound 912168] | > 5 µM | > 5 µM |
| CCC1(c2cccc(S(=O)(=O)C(C)C)c2)C2=CN=NC2NC2=C1C(=O)CC(C)(C)C2 (stereo not drawn) [US20250313563, Compound 912169] | < 0.1 µM | < 0.1 µM |
| CC1(C)CC(=O)C2=C(C1)NC1=C(CN=N1)C21CS(=O)(=O)C1 [US20250313563, Compound 912170] | > 5 µM | 1 to 5 µM |
| COC[C@H]1C[C@@]2(C1)C1=C(N=NC1)NC1=C2C(=O)CC(C)(C)C1 [US20250313563, Compound 912173] | 0.1 to 1 µM | 0.1 to 1 µM |
| CC[C@]1(c2cccc(C(F)(F)F)c2)C2=CN=NC2NC2=C1C(=O)N(CC(F)(F)F)CC2 (stereo partly drawn) [US20250313563, Compound 912205] | > 5 µM | > 5 µM |
| CC1(C)CC(=O)C2=C(C1)NC1=C(CN=N1)C21CCC2(CCC(=O)N2C(=O)OC(C)(C)C)CC1 (stereo not drawn) [US20250313563, Compound 912217] | > 5 µM | 1 to 5 µM |
| CC[C@]1(c2cccc(C(F)(F)F)c2)C2=CN=NC2NC2=C1C(=O)NCC2 (stereo partly drawn) [US20250313563, Compound 912622] | 1 to 5 µM | 0.1 to 1 µM |
| CC[C@@]1(c2cccc(C(F)(F)F)c2)C2=CN=NC2NC2=C1C(=O)NCC2 (stereo partly drawn) [US20250313563, Compound 912668] | > 5 µM | > 5 µM |
